# Results from patent US5834506A, “Dihydropyrones with improved antiviral activity” (Warner-Lambert Company, priority 1997, dated 1998).
# Where a name gives a salt, the structure may show the parent alone. Read-outs that look alike come from different tables or passages of the source.
# Tests used:
# [1] = Cellular toxicity in uninfected CEM cells (TC50); type: cell-based; settings: human, inhibits 50% of the viability of uninfected cells
# Method: (§1) Compounds were tested in lymphocyte derived CEM cells using the XTT cytopathic procedures and were performed at Southern Research Institute (Buckheit, et. al. Antiviral Res. 1993, 21, 247; see also Weislow, et al. J Nat. Cancer Inst., 1989, 81, 577). Compound concentrations were 0.32, 1, 3.2, 10, 32 and 100 uM. The EC50 represents the concentration of agent which reduces HIV cytopathic effects 50% relative to untreated control. EC95 represents the concentration of agent protecting the cells 95% relative to untreated control. Cellular toxicity of the agents are estimated from the TC50 which represents the concentration of the agent which inhibits 50% of the viability of uninfected cells.
# HIV-1 protease = biological target: T1, HIV-1 protease (Human immunodeficiency virus type 1 group M subtype B, UniProt P04585); experiment: biochemical; settings: read-out: Inhib of HIV-Protease IC50
# T1 construct: Recombinant HIV-1 protease (>96% purity); purchased Bachem Bioscience Inc. (King of Prussia, PA)
# From the text: The testing of specific 5,6-dihydropyrones as inhibitors of the HIV aspartyl protease, based on the study of the hydrolysis of an undecapeptide enzyme substrate, and the testing of the 5,6-dihydropyrones as inhibitors of viral growth and infectivity, based on the study of infection of H9 cell lines by the HIV-1iiib strain, are also disclosed. […] The methods employed follow the procedures of Tummino, et al. (Archives of Biochemistry and Biophysics 1995, 316, 523).
# (§2) The compounds of the present invention were evaluated for their in vitro inhibition of HIV-1 protease and for their antiviral efficacy in HIV infected lymphocytes.
# Recombinant HIV-1 protease (>96% purity) and HIV protease substrate III (the undecapeptide H-His-Lys-Ala-Arg-Val-Leu-Nph-Glu-Ala-Nle-Ser-NH2,>97% purity) were purchased from Bachem Bioscience Inc. (King of Prussia, PA).
# The methods employed follow the procedures of Tummino, et al. (Archives of Biochemistry and Biophysics 1995, 316, 523). […] (total volume, 100 μl). […] The final inhibitor concentrations used were 0 (0.1, 0.2, in some experiments), 0.5, 1, 2, 5, 10, 20, 50, and 100 μM. The solution was mixed, incubated for 5 minutes and the reaction quenched by addition of trifluoracetic acid, 2% final. The (leu-p-nitro-phe) bond of the substrate is cleaved by the enzyme and substrate and products separated by reverse-phase HPLC. Absorbance was measured at 220 nm, peak areas determined, and percentage conversion to product used to calculate percentage control (=[% conversion (+inhibitor)/% conversion (-inhibitor)]×100).
# [2] = system: HIV in lymphocyte derived CEM cells; experiment: Cellular Infection Assay, antiviral efficacy in HIV infected CEM cells (XTT cytopathic procedure); type: cell-based; settings: Human immunodeficiency virus 1, CCRF-CEM, CEM cells; for EC95: protecting the cells 95% relative to untreated control; for EC50: reduces HIV cytopathic effects 50% relative to untreated control, read-out: Antiviral Efficacy EC50
# Method: as §2, §1
# [3] = 6.0 nM HIV-1 protease, 40 μM substrate III, 37° C., 5 minutes
SMILES,CC50 [1],IC50 (HIV-1 protease; [3]),EC95 [2],EC50 [2],IC50 (HIV-1 protease)
"Cc1cc(SC2=C(O)CC(C)(CCc3ccc(O)cc3)OC2=O)c(C(C)(C)C)cc1OCCO (racemic) [Example 1, 3-[2-tert-Butyl-4-(2-hydroxy-ethoxy)-5-methyl-phenylsulfanyl]-4-hydroxy-6-[2-(4-hydroxy-phenyl)-ethyl]-6-methyl-5,6-dihydro-pyran-2-one, (+/-)]",> 100 µM,0.0068 µM,18 µM,3.4 µM,–
"Cc1cc(SC2=C(O)CC(CCc3ccc(O)cc3)(C(C)C)OC2=O)c(C(C)(C)C)cc1CO (racemic) [Example 2, 3-[2-tert-Butyl-4-hydroxymethyl-5-methyl-phenylsulfanyl]-4-hydroxy-6-[2-(4-hydroxy-phenyl)-ethyl]-6-isopropyl-5,6-dihydro-pyran-2-one, (+/-)]",> 100 µM,–,1 µM,0.6 µM,0.0036 µM
CCNS(=O)(=O)Oc1cc(C(C)(C)C)c(SC2=C(O)CC(C)(CCc3ccc(O)cc3)OC2=O)cc1C (racemic) [Example 3],66 µM,0.0023 µM,12 µM,1.5 µM,–
Cc1cc(SC2=C(O)CC(C)(CCc3ccc(O)cc3)OC2=O)c(C(C)(C)C)cc1OS(=O)(=O)N(C)C (racemic) [Example 4],71 µM,–,17 µM,2.5 µM,0.0016 µM
"Cc1cc(SC2=C(O)CC(CCc3ccc(O)cc3)(C(C)C)OC2=O)c(C(C)(C)C)cc1OCCO (racemic) [Example 5, 3-[2-tert-Butyl-4-(2-hydroxy-ethoxy)-5-methyl-phenylsulfanyl]-4-hydroxy-6-[2-(4-hydroxy-phenyl)-ethyl]-6-isopropyl-5,6-dihydro-pyran-2-one, (+/-)]",66 µM,0.0028 µM,3.2 µM,1.5 µM,–
"Cc1cc(SC2=C(O)CC(C)(CCc3ccc(O)cc3)OC2=O)c(C(C)(C)C)cc1OS(=O)(=O)NC(C)(C)C (racemic) [Example 6, tert-Butyl-sulfamic acid 5-tert-Butyl-4-{4-hydroxy-6-[2-(4-hydroxy-phenyl)-ethyl]-6-methyl-2-oxo-5,6-dihydro-2H-pyran-3-ylsulfanyl}-2-methyl-phenyl ester, (+/-)]",56 µM,0.0038 µM,8.5 µM,2.3 µM,–
"CCCCC1(CCc2ccc(O)cc2)CC(O)=C(Sc2cc(C)c(CO)cc2C(C)(C)C)C(=O)O1 (racemic) [Example 7, 6-Butyl-3-[2-tert-butyl-4-hydroxymethyl-5-methyl-phenylsulfanyl]-4-hydroxy-6-[2-(4-hydroxy-phenyl)-ethyl]-5,6-dihydro-pyran-2-one, (+/-)]",63 µM,0.0041 µM,3 µM,0.9 µM,–
"Cc1ccc(C(C)(C)C)c(SC2=C(O)CC(CCc3ccccc3)(c3ccccc3)OC2=O)c1 (racemic) [Ref B, 3-(2-tert-Buty5-methyl-phenylsulfanyl)-4-hydroxy-6-phenethyl-6-phenyl-5,6-dihydro-pyran-2-one, (+/-), reference compound]",55 µM,–,–,> 55 µM,0.035 µM
"CCNS(=O)(=O)Oc1cc(C(C)(C)C)c(SC2=C(O)CC(CCc3ccc(O)cc3)(C3CCCCC3)OC2=O)cc1C (centres unmarked) [Example 8, Ethyl-sulfamic acid 5-tert-butyl-4-{6-cyclohexyl-4-hydroxy-6-[2-(4-hydroxy-phenyl)-ethyl]-2-oxo-5,6-dihydro-2H-pyran-3-ylsulfanyl}-2-methyl-phenyl ester]",67 µM,0.0048 µM,5.3 µM,1.4 µM,–
"Cc1cc(SC2=C(O)CC(CCc3ccc(O)cc3)(C3CCCCC3)OC2=O)c(C(C)(C)C)cc1CO (centres unmarked) [Example 9, 3-(2-tert-Butyl-4-hydroxymethyl-5-methyl-phenylsulfanyl)-6-cyclohexyl-4-hydroxy-6-[2-(4-hydroxy-phenyl)-ethyl]-5,6-dihydro-pyran-2-one]",75 µM,–,1.2 µM,0.5 µM,0.0025 µM
"Cc1cc(SC2=C(O)CC(CCc3ccc(O)cc3)(C3CCCCC3)OC2=O)c(C(C)(C)C)cc1O (centres unmarked) [Example 10, 3-(2-tert-Butyl-4-hydroxy-5-methyl-phenylsulfanyl)-6-cyclohexyl-4-hydroxy-6-[2-(4-hydroxy-phenyl)-ethyl]-5,6-dihydro-pyran-2-one]",73 µM,0.0029 µM,8.9 µM,3.1 µM,–
"Cc1cc(SC2=C(O)CC(C)(CCc3ccc(O)cc3)OC2=O)c(C(C)(C)C)cc1N (centres unmarked) [Example 11, 3-(4-Amino-2-tert-butyl-5-methyl-phenylsulfanyl)-4-hydroxy-6-[2-(4-hydroxy-phenyl)-ethyl]-6-methyl-5,6-dihydro-pyran-2-one monohydrochloride]",> 100 µM,0.013 µM,9.1 µM,3.7 µM,–
"Cc1cc(SC2=C(O)CC(C)(CCc3ccc(O)cc3)OC2=O)c(C(C)(C)C)cc1NS(=O)(=O)c1ccc(C#N)cc1 (centres unmarked) [Example 13, N-(5-tert-Butyl-4-{4-hydroxy-6-[2-(4-hydroxy-phenyl)-ethyl]-6-methyl-2-oxo-5,6-dihydro-2H-pyran-3-ylsulfanyl}-2-methyl-phenyl)-4-cyano-benzenesulfonamide]",> 100 µM,0.0021 µM,20 µM,5 µM,–
"Cc1cc(SC2=C(O)CC(CCc3ccc(O)cc3)(CCc3ccc(O)cc3)OC2=O)c(C(C)(C)C)cc1CO [Example 14, 3-(2-tert-Buty-4-hydroxymethyl-5-methyl-phenylsulfanyl)-4-hydroxy-6,6-bis-[2-(4-hydroxyphenyl)ethyl]-5,6-dihydro-pyran-2-one]",69 µM,0.0013 µM,24 µM,6.3 µM,–
"Cc1cc(SC2=C(O)CC(CCc3ccc(N)cc3)(c3ccccc3)OC2=O)c(C(C)(C)C)cc1CO (centres unmarked) [Example 15, 6-[2-(4-aminophenyl)ethyl]-3-(2-tert-butyl-4-hydroxymethyl-5-methyl-phenylsulfanyl)-4-hydroxy-6-phenyl-5,6-dihydro-pyran-2-one]",94 µM,0.0031 µM,9.4 µM,3.7 µM,–
"Cc1cc(SC2=C(O)CC(CCc3ccc(N)cc3)(CCc3ccc(N)cc3)OC2=O)c(C(C)(C)C)cc1CO [Example 16, 6,6-Bis-[2-(4-aminophenyl)ethyl]-3-(2-tert-butyl-4-hydroxymethyl-5-methyl-phenylsulfanyl)-4-hydroxy-5,6-dihydro-pyran-2-one]",72 µM,0.0016 µM,15 µM,1.2 µM,–
"Cc1cc(SC2=C(O)C[C@@](CCc3ccccc3)(c3ccccc3)OC2=O)c(C(C)(C)C)cc1CO [Example 17, 3-(tert-Butyl4-hydroxymethyl-5-methyl-phenylsulfanyl)-4-hydroxy-6-phenethyl-6-phenyl-5,6-dihydro-pyran-2-one (S isomer)]",60 µM,0.0039 µM,7.5 µM,1.9 µM,–
"Cc1cc(SC2=C(O)CC(CCc3ccc(O)cc3)(CCc3ccc(O)cc3)OC2=O)c(C(C)(C)C)cc1N [Example 20, 3-(4-Amino-2-tert-butyl-5-methyl-phenylsulfanyl)-4-hydroxy-6,6-bis[2-(4-hydroxy-phenyl)ethyl]-5,6-dihydro-pyran-2-one]",65 µM,0.0029 µM,9.6 µM,5 µM,–
Cc1cc(SC2=C(O)C[C@@](CCc3cccc(O)c3)(C3CCCC3)OC2=O)c(C(C)(C)C)cc1CO [Example 40],> 100 µM,–,< 0.3 µM,< 0.3 µM,–
CCc1cc(SC2=C(O)CC(CCc3ccc(O)cc3)(C(C)C)OC2=O)c(C(C)(C)C)cc1CO (centres unmarked) [Example 97],> 100 µM,–,2.8 µM,0.8 µM,–
Cc1cc(CCC2(C(C)C)CC(O)=C(Sc3cc(C)c(CO)cc3C(C)(C)C)C(=O)O2)ccc1O (centres unmarked) [Example 100],84 µM,–,0.9 µM,0.33 µM,–
